Source: PMC3214178, “High-yield production of aromatic peroxygenase by the agaric fungus Marasmius rotula” (AMB Express, 2011)

What was measured:
Assay type in all cases: biochemical
[1] = test system: T1, MroAPO (Marasmius rotula aromatic peroxygenase); experiment: spectrophotometric initial rates, ABTS cation radical at […] nm; Lineweaver-Burk; details: 2 mM H2O2, sodium phosphate/citrate buffer pH 4.5, 25°C
T1 construct: native secreted heme-thiolate enzyme purified by FPLC from culture liquid of wild-type fungus

[2] = test system: T1, MroAPO (Marasmius rotula aromatic peroxygenase); experiment: spectrophotometric initial rates, dimeric DMP quinone at […] nm; Lineweaver-Burk; details: 2 mM H2O2, sodium phosphate/citrate buffer pH 5.5, 25°C
[3] = test system: T1, MroAPO (Marasmius rotula aromatic peroxygenase); experiment: spectrophotometric initial rates, 1-naphthol at […] nm; Lineweaver-Burk; details: H2O2 co-substrate (table note 2 mM; methods give start with 20 μl H2O2 (200 μM)), sodium phosphate/citrate buffer pH 5.5, acetonitrile as substrate solvent, 25°C
[4] = test system: T1, MroAPO (Marasmius rotula aromatic peroxygenase); experiment: spectrophotometric initial rates, veratraldehyde at […] nm; Lineweaver-Burk; details: 2 mM H2O2, sodium phosphate/citrate buffer pH 5.5, 25°C

## CCn1c(=NN=c2sc3cc(S(=O)(=O)O)ccc3n2CC)sc2cc(S(=O)(=O)O)ccc21 [ABTS]
[1]
  Km: 71 µM

## COc1cccc(OC)c1O [DMP]
[2]
  Km: 133 µM

## c1ccc2ccccc2c1 [Naphthalene]
[3]
  Km: 791 µM

## COc1ccc(CO)cc1OC [Veratryl alcohol]
[4]
  Km: 279 µM
